# Experimental data taken from the kinase profiling compilation of Christmann-Franck et al. (2016).
# Key:
# Assay in all cases: KINOMEscan competition binding
# Conditions in all cases: compound 10.0 µM
# FRK (human) = FRK (human) (UniProt P42685)
# YES1 (human) = YES1 (human) (UniProt P07947)
# RPS6KA4 KD2 (human) = RPS6KA4 KD2 (human) (UniProt O75676)
# MAP3K7 (human) = MAP3K7 (human) (UniProt O43318)
# STK25 (human) = STK25 (human) (UniProt O00506)
# [1] = test system: KIT (human), P10721 [V559D/T670I]
# ACVR2A (human) = ACVR2A (human) (UniProt P27037)
# DAPK2 (human) = DAPK2 (human) (UniProt Q9UIK4)
# LIMK2 (human) = LIMK2 (human) (UniProt P53671)
# EPHA5 (human) = EPHA5 (human) (UniProt P54756)
# MYLK2 (human) = MYLK2 (human) (UniProt Q9H1R3)
# AKT1 (human) = AKT1 (human) (UniProt P31749)
# ACVR1B (human) = ACVR1B (human) (UniProt P36896)
# CDC42BPB (human) = CDC42BPB (human) (UniProt Q9Y5S2)
# MYLK (human) = MYLK (human) (UniProt Q15746)
# PIK3CG (human) = PIK3CG (human) (UniProt P48736)
# PRKG2 (human) = PRKG2 (human) (UniProt Q13237)
# MAP3K4 (human) = MAP3K4 (human) (UniProt Q9Y6R4)
# CAMK2B (human) = CAMK2B (human) (UniProt Q13554)
# PKN2 (human) = PKN2 (human) (UniProt Q16513)
# GSK3A (human) = GSK3A (human) (UniProt P49840)
# [2] = test system: EGFR (human), P00533 [746-750 del]
# EPHA7 (human) = EPHA7 (human) (UniProt Q15375)
# [3] = test system: RET (human), P07949 [V804L]
# [4] = molecular target: JAK3 JH1 catalytic (human) (UniProt P52333)
# PHKG2 (human) = PHKG2 (human) (UniProt P15735)
# CLK1 (human) = CLK1 (human) (UniProt P49759)
# CDC2L2 (human) = CDC2L2 (human) (UniProt Q9UQ88)
# PRKG1 (human) = PRKG1 (human) (UniProt Q13976)
# [5] = test system: EGFR (human), P00533 [G719S]
# CAMK4 (human) = CAMK4 (human) (UniProt Q16566)
# MARK3 (human) = MARK3 (human) (UniProt P27448)
# CAMKK1 (human) = CAMKK1 (human) (UniProt Q8N5S9)
# STK17B (human) = STK17B (human) (UniProt O94768)
# TNNI3K (human) = TNNI3K (human) (UniProt Q59H18)
# ERN1 (human) = ERN1 (human) (UniProt O75460)
# SRMS (human) = SRMS (human) (UniProt Q9H3Y6)
# PHKG1 (human) = PHKG1 (human) (UniProt Q16816)
# TNK2 (human) = TNK2 (human) (UniProt Q07912)
# NLK (human) = NLK (human) (UniProt Q9UBE8)
# SRPK1 (human) = SRPK1 (human) (UniProt Q96SB4)
# Chain of SRPK1 (human) (Q96SB4 whole entry, looked up): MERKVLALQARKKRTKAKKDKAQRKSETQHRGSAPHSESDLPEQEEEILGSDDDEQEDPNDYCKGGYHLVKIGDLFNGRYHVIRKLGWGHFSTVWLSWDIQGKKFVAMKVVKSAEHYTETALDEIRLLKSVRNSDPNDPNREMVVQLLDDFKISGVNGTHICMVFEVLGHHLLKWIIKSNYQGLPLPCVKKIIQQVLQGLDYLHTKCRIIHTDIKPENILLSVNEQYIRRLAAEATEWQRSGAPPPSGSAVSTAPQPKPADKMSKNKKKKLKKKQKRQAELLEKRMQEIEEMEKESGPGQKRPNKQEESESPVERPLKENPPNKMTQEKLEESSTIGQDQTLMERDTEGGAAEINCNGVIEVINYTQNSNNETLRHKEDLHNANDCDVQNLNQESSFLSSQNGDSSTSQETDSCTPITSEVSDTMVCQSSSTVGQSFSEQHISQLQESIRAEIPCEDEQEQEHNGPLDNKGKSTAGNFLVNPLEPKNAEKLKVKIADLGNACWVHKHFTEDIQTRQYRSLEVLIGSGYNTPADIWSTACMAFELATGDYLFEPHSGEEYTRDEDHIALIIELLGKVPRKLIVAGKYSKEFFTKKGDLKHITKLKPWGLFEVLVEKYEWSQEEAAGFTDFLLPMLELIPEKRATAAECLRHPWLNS
# Chain of SRMS (human) (Q9H3Y6 whole entry, looked up): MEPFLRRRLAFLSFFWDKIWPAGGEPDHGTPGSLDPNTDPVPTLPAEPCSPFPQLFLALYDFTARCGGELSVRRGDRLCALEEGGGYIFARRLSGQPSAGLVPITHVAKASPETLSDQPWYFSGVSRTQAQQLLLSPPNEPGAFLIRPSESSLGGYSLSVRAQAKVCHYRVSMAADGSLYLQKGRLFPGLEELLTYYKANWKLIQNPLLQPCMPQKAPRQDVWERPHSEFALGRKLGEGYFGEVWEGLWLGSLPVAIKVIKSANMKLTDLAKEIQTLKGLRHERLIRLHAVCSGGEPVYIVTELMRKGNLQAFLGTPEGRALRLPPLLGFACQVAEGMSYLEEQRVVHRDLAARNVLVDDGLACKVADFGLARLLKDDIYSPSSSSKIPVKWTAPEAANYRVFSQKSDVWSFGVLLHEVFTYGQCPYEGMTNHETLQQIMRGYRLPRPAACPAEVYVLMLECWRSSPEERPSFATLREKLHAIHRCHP
# Chain of PHKG2 (human) (P15735 whole entry, looked up): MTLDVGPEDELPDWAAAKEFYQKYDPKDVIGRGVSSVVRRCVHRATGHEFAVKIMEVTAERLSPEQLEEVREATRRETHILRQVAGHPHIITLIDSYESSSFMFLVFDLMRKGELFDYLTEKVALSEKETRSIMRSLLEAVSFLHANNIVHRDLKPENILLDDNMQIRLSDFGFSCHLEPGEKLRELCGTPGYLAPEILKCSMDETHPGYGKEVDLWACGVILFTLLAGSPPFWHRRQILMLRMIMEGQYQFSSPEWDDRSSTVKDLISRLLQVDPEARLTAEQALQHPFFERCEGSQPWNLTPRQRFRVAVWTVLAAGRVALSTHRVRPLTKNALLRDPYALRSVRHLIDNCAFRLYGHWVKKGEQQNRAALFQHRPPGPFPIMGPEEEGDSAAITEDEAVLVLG
# Chain of MYLK2 (human) (Q9H1R3 whole entry, looked up): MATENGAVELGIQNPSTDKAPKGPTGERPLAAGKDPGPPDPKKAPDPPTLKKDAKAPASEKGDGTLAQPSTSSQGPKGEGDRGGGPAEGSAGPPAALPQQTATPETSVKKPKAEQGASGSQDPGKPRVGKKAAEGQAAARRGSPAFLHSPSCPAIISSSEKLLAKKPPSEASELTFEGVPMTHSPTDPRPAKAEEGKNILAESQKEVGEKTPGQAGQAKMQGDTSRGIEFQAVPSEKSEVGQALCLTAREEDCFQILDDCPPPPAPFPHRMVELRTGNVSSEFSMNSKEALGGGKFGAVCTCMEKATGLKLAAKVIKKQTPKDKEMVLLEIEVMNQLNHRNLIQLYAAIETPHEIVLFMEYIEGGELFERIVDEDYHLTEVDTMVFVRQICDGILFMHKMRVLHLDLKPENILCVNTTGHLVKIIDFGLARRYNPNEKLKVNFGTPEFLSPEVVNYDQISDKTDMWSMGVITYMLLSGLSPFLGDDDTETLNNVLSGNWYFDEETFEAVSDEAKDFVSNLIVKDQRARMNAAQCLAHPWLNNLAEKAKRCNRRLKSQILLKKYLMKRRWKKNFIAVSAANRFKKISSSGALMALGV
# Chain of MAP3K4 (human) (Q9Y6R4 whole entry, looked up): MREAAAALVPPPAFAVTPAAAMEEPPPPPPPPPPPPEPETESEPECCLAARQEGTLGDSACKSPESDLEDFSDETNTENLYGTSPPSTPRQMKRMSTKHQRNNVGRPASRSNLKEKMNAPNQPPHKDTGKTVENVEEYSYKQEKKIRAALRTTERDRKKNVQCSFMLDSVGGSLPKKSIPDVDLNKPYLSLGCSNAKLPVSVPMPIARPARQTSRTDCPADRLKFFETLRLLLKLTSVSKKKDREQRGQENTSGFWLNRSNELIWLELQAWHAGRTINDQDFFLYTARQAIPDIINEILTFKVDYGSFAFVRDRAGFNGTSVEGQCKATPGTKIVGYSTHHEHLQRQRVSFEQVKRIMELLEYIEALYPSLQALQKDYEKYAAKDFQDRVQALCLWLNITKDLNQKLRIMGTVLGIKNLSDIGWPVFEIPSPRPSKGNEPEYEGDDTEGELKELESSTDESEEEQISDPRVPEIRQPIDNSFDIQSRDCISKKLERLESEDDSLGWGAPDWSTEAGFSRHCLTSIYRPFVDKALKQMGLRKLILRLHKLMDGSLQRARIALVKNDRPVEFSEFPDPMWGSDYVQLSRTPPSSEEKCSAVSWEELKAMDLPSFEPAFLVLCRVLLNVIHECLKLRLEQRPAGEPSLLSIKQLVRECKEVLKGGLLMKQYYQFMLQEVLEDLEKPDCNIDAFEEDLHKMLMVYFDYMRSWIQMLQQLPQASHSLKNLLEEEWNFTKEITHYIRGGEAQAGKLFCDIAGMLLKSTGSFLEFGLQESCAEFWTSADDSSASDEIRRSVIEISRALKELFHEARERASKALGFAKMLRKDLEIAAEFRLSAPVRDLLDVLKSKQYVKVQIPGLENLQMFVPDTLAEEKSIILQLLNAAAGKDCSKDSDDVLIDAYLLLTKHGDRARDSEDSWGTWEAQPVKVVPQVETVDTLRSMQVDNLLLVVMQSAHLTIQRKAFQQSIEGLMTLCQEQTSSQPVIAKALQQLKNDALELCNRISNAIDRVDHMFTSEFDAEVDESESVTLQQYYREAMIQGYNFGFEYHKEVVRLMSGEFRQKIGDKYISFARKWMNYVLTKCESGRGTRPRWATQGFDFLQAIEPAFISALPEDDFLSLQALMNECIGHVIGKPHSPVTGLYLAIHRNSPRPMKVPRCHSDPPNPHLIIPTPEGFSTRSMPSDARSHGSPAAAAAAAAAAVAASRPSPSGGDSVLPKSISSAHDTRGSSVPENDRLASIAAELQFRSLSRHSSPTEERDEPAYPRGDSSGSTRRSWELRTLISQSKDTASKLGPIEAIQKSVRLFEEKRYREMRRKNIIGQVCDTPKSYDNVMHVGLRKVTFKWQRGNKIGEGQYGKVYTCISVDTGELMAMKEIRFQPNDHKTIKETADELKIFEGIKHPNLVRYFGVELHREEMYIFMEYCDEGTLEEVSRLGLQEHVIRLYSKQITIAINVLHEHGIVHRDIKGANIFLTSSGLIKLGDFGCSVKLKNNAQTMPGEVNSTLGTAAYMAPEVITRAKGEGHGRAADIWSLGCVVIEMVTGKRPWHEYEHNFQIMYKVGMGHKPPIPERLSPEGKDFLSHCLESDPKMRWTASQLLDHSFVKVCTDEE
# Chain of PIK3CG (human) (P48736 whole entry, looked up): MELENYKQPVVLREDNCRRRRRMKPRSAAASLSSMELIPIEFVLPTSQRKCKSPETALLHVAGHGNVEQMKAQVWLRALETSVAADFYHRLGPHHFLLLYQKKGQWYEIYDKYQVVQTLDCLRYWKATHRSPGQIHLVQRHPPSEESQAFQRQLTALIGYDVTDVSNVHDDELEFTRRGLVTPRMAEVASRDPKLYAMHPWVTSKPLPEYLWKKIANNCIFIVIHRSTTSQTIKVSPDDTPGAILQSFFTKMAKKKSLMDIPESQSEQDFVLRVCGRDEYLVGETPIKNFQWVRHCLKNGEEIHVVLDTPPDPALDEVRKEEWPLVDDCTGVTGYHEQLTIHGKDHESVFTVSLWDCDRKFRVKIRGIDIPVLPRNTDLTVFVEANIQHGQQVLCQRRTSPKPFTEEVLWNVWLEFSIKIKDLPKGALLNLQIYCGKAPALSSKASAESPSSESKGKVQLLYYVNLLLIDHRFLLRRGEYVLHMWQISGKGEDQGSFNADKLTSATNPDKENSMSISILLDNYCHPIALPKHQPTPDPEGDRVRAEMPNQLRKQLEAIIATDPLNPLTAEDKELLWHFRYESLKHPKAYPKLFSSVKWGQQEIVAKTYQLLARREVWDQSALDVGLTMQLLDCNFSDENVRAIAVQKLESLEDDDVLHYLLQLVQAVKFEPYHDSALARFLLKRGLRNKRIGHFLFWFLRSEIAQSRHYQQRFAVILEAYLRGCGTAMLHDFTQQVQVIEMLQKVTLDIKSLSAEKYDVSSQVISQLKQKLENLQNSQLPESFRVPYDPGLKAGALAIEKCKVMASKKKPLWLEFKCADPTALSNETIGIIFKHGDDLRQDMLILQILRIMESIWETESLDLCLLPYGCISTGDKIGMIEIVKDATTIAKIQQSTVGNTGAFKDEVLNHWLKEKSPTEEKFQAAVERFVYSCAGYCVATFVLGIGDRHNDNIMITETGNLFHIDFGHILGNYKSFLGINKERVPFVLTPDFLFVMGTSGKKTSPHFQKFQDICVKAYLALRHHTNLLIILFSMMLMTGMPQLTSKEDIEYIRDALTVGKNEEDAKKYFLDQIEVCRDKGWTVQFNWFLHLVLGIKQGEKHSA
structure (smiles),measurement,setting,value
COc1cc(C(=O)N2CCC(N3CCN(C)CC3)CC2)ccc1Nc1ncc2c(n1)N(C)c1ccccc1C(=O)N2C,"kinase still bound, per cent of control",FRK (human),34%
same,"kinase still bound, per cent of control",YES1 (human),100%
same,"kinase still bound, per cent of control",RPS6KA4 KD2 (human),46%
same,"kinase still bound, per cent of control",MAP3K7 (human),98%
same,"kinase still bound, per cent of control",STK25 (human),68%
same,"kinase still bound, per cent of control",[1],81%
same,"kinase still bound, per cent of control",ACVR2A (human),100%
same,"kinase still bound, per cent of control",DAPK2 (human),67%
same,"kinase still bound, per cent of control",LIMK2 (human),100%
same,"kinase still bound, per cent of control",EPHA5 (human),95%
same,"kinase still bound, per cent of control",MYLK2 (human),98%
same,"kinase still bound, per cent of control",AKT1 (human),79%
same,"kinase still bound, per cent of control",ACVR1B (human),100%
same,"kinase still bound, per cent of control",CDC42BPB (human),100%
same,residual activity,MYLK (human),8.7%
same,"kinase still bound, per cent of control",PIK3CG (human),15%
same,"kinase still bound, per cent of control",PRKG2 (human),74%
same,"kinase still bound, per cent of control",MAP3K4 (human),100%
same,"kinase still bound, per cent of control",CAMK2B (human),62%
same,"kinase still bound, per cent of control",PKN2 (human),95%
same,"kinase still bound, per cent of control",GSK3A (human),100%
same,"kinase still bound, per cent of control",[2],72%
same,"kinase still bound, per cent of control",EPHA7 (human),97%
same,"kinase still bound, per cent of control",[3],89%
same,"kinase still bound, per cent of control",[4],100%
same,"kinase still bound, per cent of control",PHKG2 (human),33%
same,"kinase still bound, per cent of control",CLK1 (human),28%
same,residual activity,CDC2L2 (human),82%
same,"kinase still bound, per cent of control",PRKG1 (human),98%
same,"kinase still bound, per cent of control",[5],86%
same,"kinase still bound, per cent of control",CAMK4 (human),79%
same,"kinase still bound, per cent of control",MARK3 (human),98%
same,"kinase still bound, per cent of control",CAMKK1 (human),73%
same,"kinase still bound, per cent of control",STK17B (human),93%
same,"kinase still bound, per cent of control",TNNI3K (human),100%
same,"kinase still bound, per cent of control",ERN1 (human),59%
same,"kinase still bound, per cent of control",SRMS (human),77%
same,"kinase still bound, per cent of control",PHKG1 (human),54%
same,"kinase still bound, per cent of control",TNK2 (human),18%
same,"kinase still bound, per cent of control",NLK (human),50%
same,"kinase still bound, per cent of control",SRPK1 (human),94%
